In patent US20220220135A1 (BAR-ILAN UNIVERSITY, priority 2019, published 2022):

Target: T1, NTPDase2 (Homo sapiens, UniProt Q9Y5L3)
T1 sequence (Q9Y5L3 1-495): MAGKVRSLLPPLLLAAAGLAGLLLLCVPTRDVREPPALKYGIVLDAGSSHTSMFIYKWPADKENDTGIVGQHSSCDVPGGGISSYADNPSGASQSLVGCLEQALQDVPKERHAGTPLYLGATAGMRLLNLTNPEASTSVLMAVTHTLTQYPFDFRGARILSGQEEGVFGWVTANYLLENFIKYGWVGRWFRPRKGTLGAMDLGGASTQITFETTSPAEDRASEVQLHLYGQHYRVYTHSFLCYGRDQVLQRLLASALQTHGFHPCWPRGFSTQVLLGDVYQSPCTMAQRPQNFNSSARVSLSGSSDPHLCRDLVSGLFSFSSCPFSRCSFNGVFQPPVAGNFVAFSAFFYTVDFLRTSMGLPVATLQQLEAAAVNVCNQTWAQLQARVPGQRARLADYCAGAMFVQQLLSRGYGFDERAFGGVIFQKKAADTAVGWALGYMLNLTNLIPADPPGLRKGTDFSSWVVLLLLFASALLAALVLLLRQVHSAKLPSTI
Experiment: Stability to hydrolysis by human NTPDase2
Type: in vitro ADME
Conditions: analogue 100 μM; activity with 100 μM ATP = 100%
Method: Uridine 5′-Pα,α-phosphorodithioate analogues, 9-12, were tested for their stability to degradation by NPP1 and NTPDases. These enzymes are involved in the metabolism of extracellular nucleotides. Analogues 9-12 were not hydrolyzed by hNPP1 (Table 2). […] Analogue 10 was hydrolyzed by hNTPDase1, -2 and -3 at 30-39% the rate of ATP and was slightly hydrolyzed by human NTPDase8 at 16% the rate of ATP.
Analogues 9-12 were incubated in the presence of the indicated ectonucleotidase at a concentration of 100 μM. The activity with 100 μM ATP was set as 100%, which was 329±108, 302±34, 263±51, 195±76 nmol of Pi·min−1·mg of protein−1 for NTPDase1, -2, -3 and -8, respectively, and 34±7 nmol for NPP1. Data presented are the mean±SEM of results from two experiments.

With `O=c1ccn([C@@H]2O[C@H](COP(=S)(S)OP(=O)(O)OP(=O)(O)O)[C@@H](O)[C@H]2O)c(=O)[nH]1` (stereo partly shown) [Analogue 10] as the compound, how does the “Relative activity (%) ± SEM of ATP hydrolysis, NTPDase2” value read?
Its value is 32.0 ± 3.3%.
